Reference: PMC8568133, “Evaluation of bisphenylthiazoles as a promising class for combating multidrug-resistant fungal infections” (PLoS ONE, 2021)
Where two headings read alike, the source gives them in different places.

Experiments:
Candida albicans = test: Antifungal broth microdilution MIC (50% growth inhibition) and MFC; format: cell-based
Experimental: (§1) Serial dilutions (from 128 μg/mL to 0.06 μg/mL) of the tested compounds and control drugs (fluconazole, itraconazole and amphotericin) (in triplicates), were screened against clinical isolates of Candida albicans, Candida auris, Candida glabrata, Candida parapsilosis, Candida tropicalis, Candida krusei, Cryptococcus neoformans, Cryptococcus gattii and Aspergillus fumigatus species using the broth microdilution method according to the Clinical and Laboratory Standards Institute guidelines. MICs were determined as the lowest concentration of the compounds that inhibited the fungal growth by 50% after incubation at 35 °C for 24 h (for Candida and Aspergillus), or 48 h (for Cryptococcus). The minimum fungicidal concentration (MFC) of these compounds was tested by plating 4 μL from wells with no growth onto YPD agar plates. The plates were incubated at 37 °C for 24 hours before recording the MFC, which was categorized as the lowest concentration that reduced fungal growth by 99.9% [45]. The experiment was repeated three independent times.

[1] = test system: E. coli JW55031 (tolC-mutant); test: microbe, parasite or virus in culture; format: cell-based, Escherichia coli
Experimental: (§2) The minimum inhibitory concentrations (MICs) of the tested compounds and control drugs against clinically-relevant bacterial strains were determined using the broth microdilution method, according to guidelines outlined by the Clinical and Laboratory Standards Institute (CLSI), or as described previously.
(§3) Initial screening of the bisphenylthiazoles against Gram-positive and Gram-negative bacteria. Bacterial strains, (except C. difficile that was grown anaerobically on brain heart infusion supplemented agar at 37° C for 48 hours), were grown aerobically overnight on tryptone soy agar plates at 37° C. Afterwards, a bacterial solution equivalent to 0.5 McFarland standard was prepared and diluted in cation-adjusted Mueller-Hinton broth (CAMHB) (for S. aureus, and E. coli) to achieve a bacterial concentration of about 5 × 10^5 CFU/mL. C. difficile was diluted in brain heart infusion supplemented broth, supplemented with yeast extract, hemin and vitamin K to achieve a bacterial concentration of about 5 × 10^5 CFU/mL. Compounds and control drugs were added in the first row of the 96 -well plates, and serially diluted with the corresponding media containing bacteria. Plates were then, incubated aerobi cally at 37° C for 18-20 hours (for S. aureus and E. coli). C. difficile was incubated anaerobically at 37° C for 48 hours. […]
(§4) the visual growth of bacteria.

[2] = test system: C. difficile ATCC BAA1870; test: Broth microdilution MIC, initial antibacterial screening (anaerobic); format: cell-based, Clostridioides difficile
Experimental: as §2, §3, §4

[3] = test system: E. coli BW25113 (wild-type); test: Broth microdilution MIC, initial antibacterial screening; format: cell-based, Escherichia coli
Experimental: as §2, §3, §4

MRSA USA300 = test: as above; format: cell-based, S. aureus; details: MRSA USA300
Experimental: as §2, §3, §4

Candida glabrata = test: Antifungal broth microdilution MIC (50% growth inhibition) and MFC; format: cell-based
Experimental: as §1

Candida auris = test: as above; format: cell-based
Experimental: as §1

Candida tropicalis = test: as above; format: cell-based; details: C. tropicalis ATCC 1369
Experimental: as §1

Candida krusei = test: as above; format: cell-based
Experimental: as §1

Cryptococcus gattii = test: Antifungal broth microdilution MIC (50% growth inhibition, 48 h); format: cell-based
Experimental: as §1

Cryptococcus neoformans = test: as above; format: cell-based
Experimental: as §1

[4] = test system: human colorectal cells (Caco-2); test: In vitro cytotoxicity, MTS assay; details: Caco-2, 24 h exposure, MTS
Experimental: (§5) Fig 2 In vitro cytotoxicity assay of bisphenylthiazole compounds 7, 16 and 17 (tested in triplicates at 32, 64 and 128 μg/mL) against: A) human colorectal cells (Caco-2), and B) monkey kidney epithelial cells (Vero) after 24-hours exposure time, using the MTS 3-(4,5-dimethylthiazol-2-yl)-5-(3-carboxymethoxyphenyl)-2-(4-sulfophenyl)-2H-tetrazolium) assay. The data represent the percentage of viable Caco-2 or Vero cells measured as the average absorbance relative to DMSO after exposure to the tested compounds. Dimethyl sulfoxide (DMSO) was used as a negative control. Error bars represent the standard deviation values.
(§6) To explore the tolerability of bisphenylthiazoles, their cytotoxicity profile was assessed in human colorectal adenocarcinoma (Caco-2) and monkey kidney epithelial cells (Vero) as described earlier. Briefly, compounds were incubated with the cells for 24 hours. Then, cells were incubated with MTS reagent for 3 hours before measuring the absorbance values (OD490). The experiment was repeated in two independent times.

[5] = test system: monkey kidney epithelial cells (Vero); test: In vitro cytotoxicity, MTS assay
Experimental: as §5, §6

Candida parapsilosis = test: Antifungal broth microdilution MIC (50% growth inhibition); format: cell-based
Experimental: as §1

Aspergillus fumigatus = test: as above; format: cell-based
Experimental: as §1

[6] = test system: Lactobacillus casei ATCC-334; test: Broth microdilution MIC against normal human microbiota; format: cell-based; details: Lactobacillus casei ATCC-334
Experimental: (§7) Broth microdilution was utilized to determine the activity of bisphenylthiazoles against the human gut microflora as described elsewhere. A bacterial solution equivalent to 0.5 McFarland standards was prepared and diluted in MRS broth to achieve a bacterial concentration of approximately 5 x 10^5 CFU/mL. Then, compounds/control antifungals (in triplicates), were added to the plates and serially diluted with media containing bacteria. The plates were incubated for 48 hours at 37 °C before recording the MIC values. The experiment was repeated three independent times.

[7] = test system: Lactobacillus crispatus HM-370; test: as above; format: cell-based; details: Lactobacillus crispatus HM-370
Experimental: as §7

[8] = test system: Lactobacillus gasseri HM-400; test: as above; format: cell-based; details: Lactobacillus gasseri HM-400
Experimental: as §7

Cc1nc(-c2ccc(-c3ccccc3)cc2)sc1-c1nnc(N[C@H]2CC[C@H](N)CC2)o1 [Compound 18, trans-N-{5-[2-((1,1’-Biphenyl)-4-yl)-4-methylthiazol-5-yl]-1,3,4-oxadiazol-2-yl}cyclo-hexane-1,4-diamine]
32 µg/mL: MIC ([1]; Escherichia coli) | MIC (MRSA USA300; Staphylococcus aureus, read-out: MIC)
> 64 µg/mL: MIC ([3]; Escherichia coli, read-out: MIC)
260 to 263 °C: melting point
16 µg/mL: MIC (Candida albicans; Candida albicans, C. albicans SS5314 (wild-type), read-out: MIC)
8 µg/mL: MIC ([2]; Clostridioides difficile, ATCCBAA1870, read-out: MIC)

Cc1nc(-c2ccc(-c3ccccc3)cc2)sc1-c1nnc(N[C@@H]2CCCC[C@H]2N)o1 (relative stereo) [Compound 16, N-{5-[2-((1,1’-Biphenyl)-4-yl)-4-methylthiazol-5-yl]-1,3,4-oxadiazol-2-yl}cyclo-hexane-trans-1,2-diamine]
16 times: times more tolerable than amphotericin B ([5]; relative to amphotericin B)
≤ 64 µg/mL: concentration up to which non-toxic [4] | concentration up to which non-toxic ([5]; Vero, 24 h exposure, MTS)
2 µg/mL: MIC (Candida auris; C. auris 382) | MIC (Candida auris; C. auris 385) | MIC (Candida auris; C. auris 387) | MIC (Candida auris; C. auris 389) | MIC (Candida albicans)
> 128 µg/mL: CC50 [4]
32 µg/mL: MIC [2]
64 µg/mL: MIC ([1]; E. coli JW55031 (tolC-mutant)) | MIC (MRSA USA300)
>128 µg/mL: MIC [6] | MIC [7] | MIC [8]
1 µg/mL: MIC (Candida glabrata; C. glabrata ATCC 66032) | MIC (Candida glabrata; C. glabrata ATCC MYA-2950) | MIC (Candida auris; C. auris 381) | MIC (Candida auris; C. auris 383) | MIC (Candida auris; C. auris 384) | MIC (Candida auris; C. auris 386) | MIC (Candida auris; C. auris 388) | MIC (Candida auris; C. auris 390) | MIC (Candida krusei; C. krusei ATCC 34135) | MIC (Candida krusei; C. krusei CAB 396420) | MIC (Candida albicans; C. albicans SS5314 (wild-type)) | MIC (Cryptococcus gattii; C. gattii NR 43209) | MIC (Cryptococcus gattii; C. gattii NR 43210) | MIC (Cryptococcus neoformans; C. neoformans NR 41298) | MIC (Cryptococcus neoformans; C. neoformans NR 41300) | MIC (Cryptococcus neoformans; C. neoformans NR 48770) | MIC (Candida parapsilosis; C. parapsilosis ATCC 22019) | MIC (Candida parapsilosis; C. parapsilosis CAB 502638)
4 µg/mL: MIC (Candida tropicalis) | MIC (Candida albicans; C. albicans ATCC 10231) | MIC (Aspergillus fumigatus; A. fumigatus NR 35303) | MIC (Aspergillus fumigatus; A. fumigatus NR 35304) | MIC against Aspergillus fumigatus (Aspergillus fumigatus; tested A. fumigatus isolates (Table 5))
>64 µg/mL: MIC [3]
